Like-named read-outs stand apart in the source and are kept apart here.
Columns and labels:
[1] = system: Methanobrevibacter ruminantium; assay: Methane production of methanogen monocultures treated with sera from vaccinated animals; format: cell-based; conditions: small molecule inhibitor at 3 different concentrations, FIG. 17B
Procedure: Briefly, BY medium is inoculated with a methanogen-of-interest and combined with serum. The culture tube is crimped closed and pressurized with 80% hydrogen, 20% carbon dioxide. The cultures are incubated and methane in measured intermittently using a GazoMat handheld methane monitoring device. Methane is plotted as a function of time for the various treatment groups and the control group.
200 uL of serum from vaccinated animals were added to sterile anaerobic culture tubes. Open plasma containing tubes were placed into an anaerobic chamber containing 95% nitrogen and 5% hydrogen and allowed to stand 1 hr at ambient temperature. A single seeded culture of methanogen (M. gottschalkii or M. ruminantium) was prepared in BY medium at a volume sufficient to distribute 2.5 mL to each plasma sample and control tube. 2.5 mL of methanogen culture was added to each tube containing the serum, a septa was inserted and crimped into place. Sealed tubes were removed from the anaerobic chamber and each was pressurized with 25 PSI 80% H2, 20% CO2 gas via a hypodermic needle through the septum. Tubes were placed into a 38° C. shaking incubator and periodically removed for methane measurements. Methane measurements in the tube headspace were made with a handheld remote methane detector using a jig to hold the instrument and tube during measurement.

rumen Methanobrevibacter = conditions: 5.6 μmol/L, in vitro; rumen bacteria not inhibited; cited from earlier work
[2] = 3-NOP to adsorbent ratio study; format: physicochemical; conditions: 24 hr, HPLC
Procedure: Optimal loading of 3-NOP onto adsorbents was determined by varying ratios of 3-NOP to adsorbent. 3-NOP and adsorbent were speed mixed at 2000 rpm for 1 min at the following ratios by weight: 1:1.5, 1:2, 1:2.5. The adsorbed 3-NOP powder mixture was then placed in distilled water at 1% 3-NOP loading. The solution was allowed to equilibrate for 24 hr and then an aliquot was taken for HPLC to determine the reduction in 3-NOP concentration.

[3] = 3-NOP volatility, mass loss open to air; format: physicochemical; conditions: 500 mg in 5 dram vial open to air, ~18-24C, 15-30% RH, 6 days
Procedure: 3-NOP Volatility:500 mg of 3-NOP in a 5 dram vial was left open to air at ˜18-24C at 15-30% RH over the course of 6 days. Average mass loss is ˜0.25% per day.

rumen methanogens [4] = conditions: cited from earlier work
rumen methanogens [5] = conditions: sheep, 0.5 g/day; cited from earlier work
[6] = system: methane production in ruminants; conditions: cited from earlier work
[7] = 3-NOP pH and temperature stability by HPLC; format: physicochemical; conditions: 1-month, 4-30C, pH 4-10
Excerpt: 3-NOP pH and Temperature Stability: Confirmed via HPLC over a 1-month time period at temperature between 4-30C and pH 4-10.

rumen methanogens [8] = conditions: goats, 10 g/day/goat; cited from earlier work
rumen methanogens [9] = conditions: 3.5 g/L, continuous fermenters with forages as a substrate; cited from earlier work

SMILES: CCCCCCCCCCCC(=O)O [lauric acid]
- methane production rate [1]: reduction is methane production rate

SMILES: CC[C@H](C)C(=O)O[C@H]1CCC=C2C=C[C@H](C)[C@H](CC[C@@H]3C[C@@H](O)CC(=O)O3)[C@H]21 [mevastatin]
- growth (rumen Methanobrevibacter): inhibited the growth of all three strains

SMILES: O=[N+]([O-])OCCCO [3-NOP, 3-nitrooxypropanol]
- Average Integrated Area of 3-NOP in solution ([2]; 3-NOP:Adsorbent 1:1.5, distilled water at 1% 3-NOP loading): 2566.4
- Average Integrated Area of 3-NOP in solution ([2]; 3-NOP:Adsorbent 1:2, distilled water at 1% 3-NOP loading): 2566.4
- Average Integrated Area of 3-NOP in solution ([2]; 3-NOP:Adsorbent 1:2.5, distilled water at 1% 3-NOP loading): 2566.4
- Average mass loss [3]: ~0.25 % per day
- decrease of CH4 yield (rumen methanogens [4]; beef cattle, 2.0 g/day/cow): 59%
- persistence of the inhibition (rumen methanogens [4]; beef cattle, 2.0 g/day/cow): up to 112 days
- decrease of CH4 production (rumen methanogens [4]; dairy cows, 40-80 mg/kg feed DM, persistently for up to 84 days): about 30%
- degree of CH4 suppression (rumen methanogens [4]; directly added to the rumen through rumen cannula, daily dose 0.50 or 2.5 g per cow): 7-10%
- decrease of CH4 production (rumen methanogens [5]): 29%
- Addition amount; maximum methane suppression amount ([6]; 0.08 mg/g dry matter (Alvarez-Hess et al., 2019)): 0.08 mg/g dry matter; 44%
- Addition amount; maximum methane suppression amount ([6]; 60 mg/kg of feed dry matter (Melgar et al., 2020)): 26%/day (Melgar et al., 2020)
- Addition amount; maximum methane suppression amount ([6]; 1.6 g, concentrate pellet (Van Wesemael et al., 2019)): 23%
- Addition amount; maximum methane suppression amount ([6]; 1.6 g, roughage (Van Wesemael et al., 2019)): 28%
- pH and Temperature Stability [7]: Confirmed

SMILES: O=C(O)/C=C/C(=O)O [fumarate]
- decrease of abundance of methanogens and CH4 production (rumen methanogens [8]): 11.9%
- decrease of CH4 production (rumen methanogens [9]): 38%
